Measurements as given in patent US6566120B2 (Massachusetts Institute of Technology, priority 1995, dated 2003).
Read-outs that look alike come from different tables or passages of the source.

Experiments:
Actinomadura hydroxylase [1] = assay: Effect of various factors on conversion of compactin to pravastatin in cell free extracts of Actinomadura; assay type: biochemical, Actinomadura ATCC 55678; conditions: for CP: compactin remaining
strain 2966 = assay: Antibiotic sensitivity of strain 2966 (taxonomic description); assay type: cell-based, Actinomadura
Description: Description of strain 2966: Cell wall analysis: Whole cell hydrolysates contain meso-diaminopimelic acid (DAP) and madurose. Morphology: Strain 2966 produces an extensively branched, non-fragmenting and dense substrate mycelium. The aerial mycelium is very well developed on yeast malt extract agar, oatmeal agar, N-Z Amine with soluble starch and glucose agar and absent on ISP-4, ISP-5 and ISP-7 media. Spore chains noticeably exceed the diameter of the hyphae which is characteristic for Actinomadura strains and distinguish them from Streptomyces. The presence of meso-DAP is another distinguishing feature. Spores of strain 2966 have a round shape unlike glycomyces species. No special morphological structures were observed either on the substrate mycelium or aerial mycelium. The color of the aerial mycelium is white and yellow-brown for substrate mycelium. No soluble or melanin pigments are formed. Mycelium is not sensitive to pH changes. Carbon source utilization is very poor for glucose, arabinose, D-fructose, D-mannitol, raffinose, rhamnose, sucrose, xylose, galactose and there is only a trace of growth with i-inositol, salicin or on control agar. […] Of the meso-DAP-containing actinomycetes, only Actinomadura species have non-fragmenting mycelium and display the same type of aerial mycelium formation and sporulation as strain 2966.

Actinomadura hydroxylase [2] = assay: Conversion of compactin to pravastatin by cell free extracts of Actinomadura: NADH versus NADPH as H+ donor; assay type: biochemical, Actinomadura ATCC 55678; conditions: for PV: 160 μl cell free extract, 0.26 mM H+ donor, 0.23 mM compactin, 30° C.
Method: The HPLC conditions used were a 3 μm Lichrospher 100 RP-18 column (obtained from EM Separations Technology, Gibbstown, N.J.); Mobile Phase A: 2.5 g NaH2PO4 in 800 ml Milli-Q water, add 200 ml acetonitrile and 110 ml methanol, adjust pH to 2.5 with 85% H3PO4; Mobile Phase B: mixture of 200 ml water, 800 ml acetonitrile, 110 ml methanol and 1 ml 85% H3PO4; a 10 μl injection volume; a 1 ml/min. flow rate; and detection at UV 237 nm. The gradient table was: A cell free extract of Actinomadura was obtained by growing a 150 ml culture of Actinomadura ATCC 55678 for 2 days in YM medium as described in Example 1. The cells were harvested by centrifugation at 15,000 rpm for 30 min. […] Cells were harvested by centrifugation, washed twice with cold water and once with buffer A ([…] Tris-HCl buffer, pH 7.4, supplemented with 20% glycerol and 2 mM DTT). The cells were resuspended in 5 ml buffer A and stored at −80° C. The cell suspension was later thawed and disrupted in a French Press. The homogenate was centrifugated at 30,000 rpm for 60 min. The supernatant was stored at −80° C. as cell free extract. […] A control of buffer A without cell free extract was included. The amount of pravastatin was measured by HPLC as described in Example 1.

[3] = target: T1, 3-hydroxy-3-methylglutaryl (HMG)-CoA reductase (Homo sapiens, UniProt P04035); conditions: have been reported; cited from earlier work
T1 sequence (P04035 1-888): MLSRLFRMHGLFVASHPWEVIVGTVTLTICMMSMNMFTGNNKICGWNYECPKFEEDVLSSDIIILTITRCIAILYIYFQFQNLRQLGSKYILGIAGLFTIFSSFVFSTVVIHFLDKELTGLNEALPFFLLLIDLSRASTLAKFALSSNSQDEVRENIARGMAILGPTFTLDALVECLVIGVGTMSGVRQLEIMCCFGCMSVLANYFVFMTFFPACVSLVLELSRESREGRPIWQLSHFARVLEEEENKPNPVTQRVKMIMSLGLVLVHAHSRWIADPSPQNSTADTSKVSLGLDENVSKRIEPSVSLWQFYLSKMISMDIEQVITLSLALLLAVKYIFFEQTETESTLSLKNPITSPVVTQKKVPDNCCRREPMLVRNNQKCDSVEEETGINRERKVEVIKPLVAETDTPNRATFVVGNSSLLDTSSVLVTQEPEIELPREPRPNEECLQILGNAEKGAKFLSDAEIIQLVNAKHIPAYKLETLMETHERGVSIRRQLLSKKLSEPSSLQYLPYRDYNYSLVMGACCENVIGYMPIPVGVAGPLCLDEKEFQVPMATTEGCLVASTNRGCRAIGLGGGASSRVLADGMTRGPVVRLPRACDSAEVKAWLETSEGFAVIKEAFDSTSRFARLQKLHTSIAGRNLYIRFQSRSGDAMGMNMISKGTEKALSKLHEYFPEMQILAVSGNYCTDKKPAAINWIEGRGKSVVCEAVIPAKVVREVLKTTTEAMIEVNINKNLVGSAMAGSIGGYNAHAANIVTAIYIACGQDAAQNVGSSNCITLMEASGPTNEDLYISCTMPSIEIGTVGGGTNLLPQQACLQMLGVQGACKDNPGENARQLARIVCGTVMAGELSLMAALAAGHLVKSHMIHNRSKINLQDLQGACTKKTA

blood cholesterol level = assay: Treating high blood cholesterol levels; assay type: in vivo; conditions: human patient; 20 mg orally, pill, twice a day, 3 months
Method: This example illustrates a method for lowering the cholesterol level in a human with pravastatin derived from an Actinomadura hydroxylase that converts compactin to pravastatin. The patient is given 20 mg of this pravastatin orally, in the form of a pill, twice a day. Administration is carried out for a period of 3 months.

fungi = conditions: Serizawa et al., J. Antibiotics 36:887-891 (1983); cited from earlier work
[4] = Actinomadura cell free extracts, alone or in combination
[5] = Table 10, CFE Uninduced, combination MgCl2 2.4 mM, ATP 1.9 mM, ascb 12 mM, ATP alone 3.8 mM, ascb alone 23 mM
[6] = Table 9, 60 min, 0.72 mM NADPH, 0.2 mM compactin, 2.4 mM MgCl2, 0.09 mM FeSO4, 0.1 mM FeCl3, 1.9 mM ATP and 12 mM ascorbic acid
[7] = Table 9, 60 min, 0.72 mM NADPH, 0.2 mM compactin, same factor concentrations

With Cc1cc2nc3c(=O)[nH]c(=O)nc-3n(C[C@H](O)[C@H](O)[C@H](O)COP(=O)(O)O)c2cc1C [FMN] as the compound, how does the “stimulation of the enzymatic activity of the agent (conversion of compactin to pravastatin)” value (from here on “stimulation”) (Actinomadura hydroxylase [1]) read?
Its value is “do not stimulate enzymatic activity”.

Which “stimulation” value (Actinomadura hydroxylase [1]; [4]) does the source give for Nc1ncnc2c1ncn2[C@@H]1O[C@H](COP(=O)(O)OP(=O)(O)OP(=O)(O)O)[C@@H](O)[C@H]1O [ATP] here?
Its value is “stimulate conversion of compactin to pravastatin”.

And the “PV (μg/min/g)” value (Actinomadura hydroxylase [1]; [5])?
The value was 17 µg/min/g.

What about the “PV (μg/ml)” value (Actinomadura hydroxylase [1]; [5]) of the same compound?
Its value is 7.5 µg/mL.

Which “sensitivity of strain 2966 to antibiotic” value (strain 2966) does the source give for neomycin here?
The value was “inhibited”.

Which “stimulation” value (Actinomadura hydroxylase [1]) does the source give for [Cl-].[Cl-].[Co+2] [CoCl2] here?
The value was “do not stimulate enzymatic activity”.

Which “stimulation” value (Actinomadura hydroxylase [1]; [4]) does the source give for [Cl-].[Cl-].[Mg+2] [MgCl2] here?
The value was “stimulate conversion of compactin to pravastatin”.

What about the “PV (μg/ml)” value (Actinomadura hydroxylase [1]; [6]) of the same compound?
Its value is 4.4 µg/mL.

What about the “PV (μg/min/g)” value (Actinomadura hydroxylase [1]; [7]) of the same compound?
The value was 8.7 µg/min/g.

And the “CP” value (Actinomadura hydroxylase [1]; [7])?
Its value is 60.2 µg/mL.

For O=S(=O)([O-])[O-].[Cu+2] [CuSo4], which “stimulation” value (Actinomadura hydroxylase [1]; [4]) is on record?
Its value is “do not stimulate enzymatic activity”.

For O=C(O)CCC(=O)C(=O)O [∝-ketoglutarate], which “stimulation” value (Actinomadura hydroxylase [1]; [4]) is on record?
The value was “do not stimulate enzymatic activity”.

For [Cl][Ni][Cl] [NiCl2], which “stimulation” value (Actinomadura hydroxylase [1]; [4]) is on record?
The value was “do not stimulate enzymatic activity”.

For penicillin, which “sensitivity of strain 2966 to antibiotic” value (strain 2966) is on record?
The value was “resistance”.

With O=S(=O)([O-])[O-].[Fe+2] [FeSO4] as the compound, how does the “PV (μg/ml)” value (Actinomadura hydroxylase [1]; [6]) read?
Its value is 2.3 µg/mL.

What about the “PV (μg/min/g)” value (Actinomadura hydroxylase [1]; [7]) of the same compound?
Its value is 6.4 µg/min/g.

What about the “CP” value (Actinomadura hydroxylase [1]; [7]) of the same compound?
The value was 64.3 µg/mL.

What does the source list for NC(=O)C1=CN([C@@H]2O[C@H](COP(=O)(O)OP(=O)(O)OC[C@H]3O[C@@H](n4cnc5c(N)ncnc54)[C@H](O)[C@@H]3O)[C@@H](O)[C@H]2O)C=CC1 [NADH]?
PV (Actinomadura hydroxylase [2]; 5 hours): 2.8 µg/mL; PV (Actinomadura hydroxylase [2]; 21 hours): 2.8 µg/mL

For [Cl][Fe]([Cl])[Cl] [FeCl3], which “PV (μg/ml)” value (Actinomadura hydroxylase [1]; [6]) is on record?
Its value is 3.3 µg/mL.

What about the “PV (μg/min/g)” value (Actinomadura hydroxylase [1]; [7]) of the same compound?
Its value is 6.6 µg/min/g.

And the “CP” value (Actinomadura hydroxylase [1]; [7])?
The value was 57.9 µg/mL.

With CC[C@H](C)C(=O)O[C@H]1C[C@H](O)C=C2C=C[C@H](C)[C@H](CC[C@@H](O)C[C@@H](O)CC(=O)O)[C@H]21 [pravastatin] as the compound, how does the “inhibition of HMG-CoA reductase” value [3] read?
Its value is “competitive inhibitors”.

What about the blood cholesterol level (blood cholesterol level) of the same compound?
Its blood cholesterol level is “reduction of the patient's blood cholesterol level”.

For Cc1cc2nc3c(=O)[nH]c(=O)nc-3n(C[C@H](O)[C@H](O)[C@H](O)COP(=O)(O)OP(=O)(O)OC[C@H]3O[C@@H](n4cnc5c(N)ncnc54)[C@H](O)[C@@H]3O)c2cc1C [FAD], which “stimulation” value (Actinomadura hydroxylase [1]) is on record?
Its value is “do not stimulate enzymatic activity”.

For NC(=O)C1=CN([C@@H]2O[C@H](COP(=O)(O)OP(=O)(O)OC[C@H]3O[C@@H](n4cnc5c(N)ncnc54)[C@H](OP(=O)(O)O)[C@@H]3O)[C@@H](O)[C@H]2O)C=CC1 [NADPH], which “PV” value (Actinomadura hydroxylase [2]; 6 hours) is on record?
Its value is 12.8 µg/mL.

And the “PV” value (Actinomadura hydroxylase [2]; 21 hours)?
Its value is 11.9 µg/mL.

What about the “enzymatic conversion of compactin to pravastatin, comparison of H+ donors” value (Actinomadura hydroxylase [2]; cell free extracts) of the same compound?
Its value is “better with NADPH as a H^+ donor than with NADH”.

Which activity against fungi (fungi) does the source give for compactin here?
The activity against fungi was “anti-fungal activity”.

Which “stimulation” value (Actinomadura hydroxylase [1]; [4]) does the source give for O=C1O[C@H]([C@@H](O)CO)C(O)=C1O [ascb, ascorbic acid] here?
The value was “stimulate conversion of compactin to pravastatin”.

And the “PV (μg/min/g)” value (Actinomadura hydroxylase [1]; [5])?
Its value is 18 µg/min/g.

And the “PV (μg/ml)” value (Actinomadura hydroxylase [1]; [5])?
The value was 8.3 µg/mL.
